Results reported in US20260174763A1, “PREPARATION METHOD AND USE OF A NOVEL TAXANE-BASED COMPOUND” (Jiangsu Jibeier Pharmaceutical Co., Ltd., priority 2023, published 2026).

How the values were obtained:
[1] = system: human gastric cancer cell line MGC-803; assay: CTG proliferation inhibition, MGC-803; format: cell-based; details: 72 h incubation, read-out: IC50 (nM) of the test compounds for various tumor cell lines
Description: (§1) Testing the inhibition effect of the compounds of Formula (I) and Formula II on the proliferation of various tumor cell lines by CTG method:
(§2) The CellTiter-Glo Luminescent Cell Viability Assay (CTG) method was used to test the inhibition effect of the compounds of Formula (I) and Formula II on the proliferation of various tumor cell lines, and IC50 value was calculated. The tumor cell lines included: human pancreatic cancer cell lines: SW1990, PANC-1, HPAF-II; human gastric cancer cell lines: NCI-N87, MGC-803; human esophageal cancer cell lines: KYSE-150, KYSE-410; human head-and-neck cancer cell lines: C666-1, Fadu; human breast cancer cell line: MDA-MB-231; human lung cancer cell line: A549; human adrenocortical carcinoma cell line: SW-13; human bladder cancer/urothelial carcinoma cell line: BIU-87, totally 13 tumor cell lines.
(§3) Experimental method: cells in logarithmic growth phase were obtained. The cell suspension was added to each well of a 96-well plate, placed in an incubator at 37° C. for overnight incubation. Complete mediums corresponding to each of the tumor cell lines were used to dilute the test compounds of […] and Formula II. The drugs were subjected to gradient dilution according to the following table. Culture medium containing the drug to be tested was added to the 96-well plate. Replicates were provided or each concentration in three wells; and a negative control well not containing the drug to be tested was provided. The 96-well plate was placed in incubator for incubation for 72 h and then added thereto a CTG reagent, with a blank control well provided. The substances in the wells were mixed evenly, and the cells were lysed and incubated at room temperature for 10 min. The […] signal value (Lum) was measured with a microplate reader.
(§4) Data processing and analysis: The software GraphPad Prism 8.0 was used to process the data graphically, calculate IC50, perform four-parameter non-linear regression analysis on the data, and map the corresponding dose-response curve. The equation for calculating cell viability is as below: […]

[2] = system: human adrenocortical carcinoma cell line SW-13; assay: CTG proliferation inhibition, SW-13; format: cell-based; details: 72 h incubation, read-out: IC50 (nM) of the test compounds for various tumor cell lines
Description: as §1, §2, §3, §4

[3] = system: human lung cancer cell line A549; assay: CTG proliferation inhibition, A549; format: cell-based; details: 72 h incubation, read-out: IC50 (nM) of the test compounds for various tumor cell lines
Description: as §1, §2, §3, §4

[4] = system: human esophageal cancer cell line KYSE-150; assay: CTG proliferation inhibition, KYSE-150; format: cell-based; details: 72 h incubation, read-out: IC50 (nM) of the test compounds for various tumor cell lines
Description: as §1, §2, §3, §4

[5] = system: human pancreatic cancer cell line HPAF-II; assay: CTG proliferation inhibition, HPAF-II; format: cell-based; details: 72 h incubation, read-out: IC50 (nM) of the test compounds for various tumor cell lines
Description: as §1, §2, §3, §4

[6] = system: human breast cancer cell line MDA-MB-231; assay: CTG proliferation inhibition, MDA-MB-231; format: cell-based; details: 72 h incubation, read-out: IC50 (nM) of the test compounds for various tumor cell lines
Description: as §1, §2, §3, §4

[7] = system: human esophageal cancer cell line KYSE-410; assay: CTG proliferation inhibition, KYSE-410; format: cell-based; details: 72 h incubation, read-out: IC50 (nM) of the test compounds for various tumor cell lines
Description: as §1, §2, §3, §4

[8] = system: human head-and-neck cancer cell line Fadu; assay: CTG proliferation inhibition, Fadu; format: cell-based; details: 72 h incubation, read-out: IC50 (nM) of the test compounds for various tumor cell lines
Description: as §1, §2, §3, §4

[9] = system: human gastric cancer cell line NCI-N87; assay: CTG proliferation inhibition, NCI-N87; format: cell-based; details: 72 h incubation, read-out: IC50 (nM) of the test compounds for various tumor cell lines
Description: as §1, §2, §3, §4

[10] = system: human pancreatic cancer cell line SW1990; assay: CTG proliferation inhibition, SW1990; format: cell-based; details: 72 h incubation, read-out: IC50 (nM) of the test compounds for various tumor cell lines
Description: as §1, §2, §3, §4

[11] = system: human pancreatic cancer cell line PANC-1; assay: CTG proliferation inhibition, PANC-1; format: cell-based; details: 72 h incubation, read-out: IC50 (nM) of the test compounds for various tumor cell lines
Description: as §1, §2, §3, §4

[12] = system: human bladder cancer/urothelial carcinoma cell line BIU-87; assay: CTG proliferation inhibition, BIU-87; format: cell-based; details: 72 h incubation, read-out: IC50 (nM) of the test compounds for various tumor cell lines
Description: as §1, §2, §3, §4

[13] = system: human head-and-neck cancer cell line C666-1; assay: CTG proliferation inhibition, C666-1; format: cell-based; details: 72 h incubation, read-out: IC50 (nM) of the test compounds for various tumor cell lines
Description: as §1, §2, §3, §4

tumor cell = details: compared with paclitaxel; cited from earlier work
advanced breast cancer = details: clinical outcome; cited from earlier work
advanced ovarian cancer = details: clinical outcome; cited from earlier work
[14] = system: advanced non-small cell lung cancer; details: clinical outcome; cited from earlier work

SMILES	IC50 [1] [nM]	IC50 [2] [nM]	IC50 [3] [nM]	IC50 [4] [nM]	IC50 [5] [nM]	IC50 [6] [nM]	IC50 [7] [nM]	IC50 [8] [nM]	IC50 [9] [nM]	IC50 [10] [nM]	IC50 [11] [nM]	IC50 [12] [nM]	IC50 [13] [nM]	ability to inhibit cell division relative to paclitaxel (tumor cell)	tumor cell proliferation inhibition rate relative to paclitaxel (tumor cell) [times]	effective rate (advanced breast cancer) [%]	effective rate (advanced ovarian cancer) [%]	effective rate [14] [%]
CC(=O)OC12COC1CC(O)C1(C)C(=O)C(OC(=O)Nc3ccc(C(C)O)cc3)C3=C(C)C(OC(=O)C(O)C(NC(=O)OC(C)(C)C)c4ccccc4)CC(O)(C(OC(=O)c4ccccc4)C21)C3(C)C (centres unmarked) [Compound I-1]	0.187	1.57	41.9	1.99	4.45	5.46	1.26	2.64	28.2	6.34	2.27	12.1	16					
CC(=O)OC12COC1CC(O)C1(C)C(=O)C(OC(=O)Nc3ccc(C(C)O)cc3)C3=C(C)C(OC(=O)C(O)C(NC(=O)OC(C)(C)C)c4ccccc4)CC(O)(C(OC(=O)c4ccccc4)C21)C3(C)C (centres unmarked) [Compound I-2]	3.4	6.12	11.7	1.75	8.65	0.042	0.101	4.15	7.46	3.1	2.89	29.1	7.34					
CC(=O)OC12COC1CC(O)C1(C)C(=O)C(OC(=O)Nc3ccc(C(C)O)cc3)C3=C(C)C(OC(=O)C(O)C(NC(=O)OC(C)(C)C)c4ccccc4)CC(O)(C(OC(=O)c4ccccc4)C21)C3(C)C (centres unmarked) [Compound I-3]	2.08	2.69	25.3	0.376	2.22	6.61	0.084	0.657	8.3	0.916	0.814	0.319	10.5					
CC(=O)OC12COC1CC(O)C1(C)C(=O)C(OC(=O)Nc3ccc(C(C)O)cc3)C3=C(C)C(OC(=O)C(O)C(NC(=O)OC(C)(C)C)c4ccccc4)CC(O)(C(OC(=O)c4ccccc4)C21)C3(C)C (centres unmarked) [Compound I-4]	4.99	9.12	12.4	0.726	2.18	12.6	0.097	8.62	18.8	6.4	0.549	17.5	12.1					
CC(=O)OC12COC1CC(O)C1(C)C(=O)C(OC(=O)Nc3ccc(C(C)O)cc3)C3=C(C)C(OC(=O)C(O)C(NC(=O)OC(C)(C)C)c4ccccc4)CC(O)(C(OC(=O)c4ccccc4)C21)C3(C)C (centres unmarked) [Compound I-5]	0.635	4.75	5.64	0.808	10.7	2.91	0.016	4.76	11.4	12.7	1.41	17.7	3.39					
CC(=O)OC12COC1CC(O)C1(C)C(=O)C(OC(=O)Nc3ccc(C(C)O)cc3)C3=C(C)C(OC(=O)C(O)C(NC(=O)OC(C)(C)C)c4ccccc4)CC(O)(C(OC(=O)c4ccccc4)C21)C3(C)C (centres unmarked) [Compound I-6]	3.49	8.48	18.9	0.123	11	11.7	0.02	12.8	12.9	12.2	0.878	30.1	3.03					
CC(=O)OC12COC1CC(O)C1(C)C(=O)C(OC(=O)Nc3ccc(C(C)O)cc3)C3=C(C)C(OC(=O)C(O)C(NC(=O)OC(C)(C)C)c4ccccc4)CC(O)(C(OC(=O)c4ccccc4)C21)C3(C)C (centres unmarked) [Compound I-7]	4.93	7.36	60.2	0.972	3.11	13	0.1	6.47	10.9	6.73	0.888	10.2	9.19					
CC(=O)OC12COC1CC(O)C1(C)C(=O)C(OC(=O)Nc3ccc(C(C)O)cc3)C3=C(C)C(OC(=O)C(O)C(NC(=O)OC(C)(C)C)c4ccccc4)CC(O)(C(OC(=O)c4ccccc4)C21)C3(C)C (centres unmarked) [Compound I-8]	0.844	10.1	27.1	1.7	9.05	6.57	0.032	9.16	14.7	14.2	0.007	12.7	10.5					
CC(=O)OC12COC1CC(O)C1(C)C(=O)C(OC(=O)Nc3ccc(C(C)=O)cc3)C3=C(C)C(OC(=O)C(O)C(NC(=O)OC(C)(C)C)c4ccccc4)CC(O)(C(OC(=O)c4ccccc4)C21)C3(C)C (centres unmarked) [II, reference compound]	5.34	12.5	60.5	1.9	12.6	20.9	0.113	16.7	20.8	15.5	3.35	30.5	12.8					
CC(=O)O[C@@]12CO[C@@H]1C[C@H](O)[C@@]1(C)C(=O)[C@H](O)C3=C(C)[C@@H](OC(=O)[C@H](O)[C@@H](NC(=O)OC(C)(C)C)c4ccccc4)C[C@@](O)([C@@H](OC(=O)c4ccccc4)[C@H]21)C3(C)C [docetaxel, Docetaxel]														twice that of paclitaxel	10	60	30	31
